Laboratory results published in US10472395B2, “Cyclic peptide analogs and conjugates thereof” (Sirenas LLC, priority 2015, dated 2019).
Numbered stars: 1 amine (or outer) side, 2 acyl side, 3 side chain; on linkers, the order of the positions; unused ones are H or OH. Bridge positions count the residues as written; N and C are the ends. Square brackets hold non-standard residues; d marks the D form. Peptide text beside a SMILES is read from it. ξ: configuration not given here. X4 = C/C=C(\C)[C@@H](N[*:1])[C@@H](C)[C@H](O)C/C=C(\C)C(=O)O[C@H](CC(C)C)C(=O)[*:2]; X10 = C/C(=C\CCCCO[*:2])C(=O)[*:1]; X11 = C/C(=C\CCO[*:2])C(=O)[*:1]; X9 = C/C(=C\CCCO[*:2])C(=O)[*:1]; dNMeF = CN[C@H](Cc1ccccc1)C(=O)O; Ile(3ξ) = CCC(C)[C@H](N)C(=O)O; dHica = CC(C)C[C@@H](O)C(=O)O; NMeA = CN[C@@H](C)C(=O)O; dNMeA = CN[C@H](C)C(=O)O; Sar = CNCC(=O)O

How the values were obtained:
[1] = tested on: BT-474 human mammary gland ductal carcinoma cells; assay: Inhibitory response of test compounds against BT-474 cells (Cell Titer-Glo, 72 h); format: cell-based; details: Homo sapiens
Description: (§1) BT-474 human mammary gland ductal carcinoma cells were seeded in a clear polystyrene 96-well microculture plate (Corning® Costar® 96-well flat bottom plate, Cat.#3997) in a total volume of 90 μL/well. After 24 hours of incubation in a humidified incubator at 37° C. with 5% CO2 and 95% air, 10 μL of 10×, serially diluted test agents in growth medium were added to each well (10 pt dose response curve, highest concentration 10 μM of test agent). After 72 hours of culture in a humidified incubator at 37° C., in an atmosphere of 5% CO2 and 95% air, the plated cells and Cell Titer-Glo® (Promega G7571) reagents were brought to room temperature to equilibrate for 30 minutes. 100 μL of Cell Titer-Glo® reagent was added to each well. The plate was shaken for two minutes and then left to equilibrate for ten minutes. The media/Cell Titer-Glo® reagent was transferred to a white polystyrene 96-well microculture plate (Corning® Costar® 96-well flat bottom plate, Cat.#3917) before reading luminescence on a Tecan GENios microplate reader.
(§2) Percent inhibition of cell growth was calculated relative to untreated control wells. The IC50 value for the test agents was determined using Prism 6.05 by curve-fitting of the data using the following four parameter-logistic equation:
(§3) [formula] where Top is the maximal % of control absorbance, Bottom is the minimal % of control absorbance at the highest agent concentration, Y is the % of control absorbance, X is the agent concentration, IC50 is the concentration of agent that inhibits cell growth by 50% compared to the control cells, and n is the slope of the curve.

HCC1954 cells = assay: Inhibitory response of test compounds against HCC1954 cells (method analogous to BT-474); format: cell-based; details: Homo sapiens
Description: as §1, §2, §3
Inhibitory response of test compounds against HCC1954 cells was determined using a method analogous to that used for BT-474 cells.

Row | SMILES | IC50 [1] [µM] | also measured
1 | CCC(C)[C@@H]1NC(=O)CN(C)C(=O)[C@@H](Cc2ccccc2)N(C)C(=O)[C@H](C)NC(=O)[C@@H](CC(C)C)OC(=O)/C(C)=C/CCCOC(=O)[C@H](C)NC1=O (some centres unmarked) [Compound 4] ([dHica]A[dNMeF][Sar][Ile(3ξ)]A; linker N-C via X9) | > 10 | –
2 | CCC(C)[C@@H]1NC(=O)CN(C)C(=O)[C@@H](Cc2ccccc2)N(C)C(=O)[C@H](C)NC(=O)[C@@H](CC(C)C)OC(=O)/C(C)=C/CCCOC(=O)[C@@H](C)NC1=O (some centres unmarked) [Compound 5] ([dHica]A[dNMeF][Sar][Ile(3ξ)][dA]; linker N-C via X9) | > 10 | –
3 | CCC(C)[C@@H]1NC(=O)CN(C)C(=O)[C@@H](Cc2ccccc2)N(C)C(=O)[C@H](C)NC(=O)[C@@H](CC(C)C)OC(=O)/C(C)=C/CCCOC(=O)[C@H](C)N(C)C1=O (some centres unmarked) [Compound 9] ([dHica]A[dNMeF][Sar][Ile(3ξ)][NMeA]; linker N-C via X9) | > 10 | –
4 | CCC(C)[C@@H]1NC(=O)CN(C)C(=O)[C@@H](Cc2ccccc2)N(C)C(=O)[C@H](C)NC(=O)[C@@H](CC(C)C)OC(=O)/C(C)=C/CCCOC(=O)[C@@H](C)N(C)C1=O (some centres unmarked) [Compound 10] ([dHica]A[dNMeF][Sar][Ile(3ξ)][dNMeA]; linker N-C via X9) | > 10 | –
5 | CCC(C)[C@@H]1NC(=O)CN(C)C(=O)[C@@H](Cc2ccccc2)N(C)C(=O)[C@H](C)NC(=O)[C@@H](CC(C)C)OC(=O)/C(C)=C/CCCOC(=O)[C@H](CCCCNC(=O)OC(C)(C)C)NC1=O (some centres unmarked) [Compound 11] | > 10 | –
6 | CCC(C)[C@@H]1NC(=O)CN(C)C(=O)[C@@H](Cc2ccccc2)N(C)C(=O)[C@H](C)NC(=O)[C@@H](CC(C)C)OC(=O)/C(C)=C/CCOC(=O)[C@@H](C)NC1=O (some centres unmarked) [Compound 12] ([dHica]A[dNMeF][Sar][Ile(3ξ)][dA]; linker N-C via X11) | > 10 | –
7 | CCC(C)[C@@H]1NC(=O)CN(C)C(=O)[C@@H](Cc2ccccc2)N(C)C(=O)[C@H](C)NC(=O)[C@@H](CC(C)C)OC(=O)/C(C)=C/CCCCOC(=O)[C@@H](C)NC1=O (some centres unmarked) [Compound 13] ([dHica]A[dNMeF][Sar][Ile(3ξ)][dA]; linker N-C via X10) | > 10 | –
8 | CCC(C)[C@@H]1NC(=O)CN(C)C(=O)[C@@H](Cc2ccccc2)N(C)C(=O)[C@H](C)NC(=O)[C@@H](CC(C)C)OC(=O)/C(C)=C/CCCCOC(=O)[C@@H](C)N(C)C1=O (some centres unmarked) [Compound 14] ([dHica]A[dNMeF][Sar][Ile(3ξ)][dNMeA]; linker N-C via X10) | > 10 | –
9 | CCC(C)[C@@H]1NC(=O)CN(C)C(=O)[C@@H](Cc2ccccc2)N(C)C(=O)[C@H](C)NC(=O)[C@@H](CC(C)C)OC(=O)/C(C)=C/CCCCOC(=O)[C@H](C)NC1=O (some centres unmarked) [Compound 17] ([dHica]A[dNMeF][Sar][Ile(3ξ)]A; linker N-C via X10) | 0.2 to 10 | –
10 | C/C=C(\C)[C@H]1NC(=O)[C@@H](C)NC(=O)[C@H](C(C)CC)NC(=O)CN(C)C(=O)[C@@H](Cc2ccccc2)N(C)C(=O)[C@H](C)NC(=O)[C@@H](CC(C)C)OC(=O)/C(C)=C/C[C@@H](O)[C@@H]1C (some centres unmarked) [Compound 19] (cyclo(A[dNMeF][Sar][Ile(3ξ)][dA][X4])) | > 10 | IC50 ([1]; 72 h, Cell Titer-Glo, highest concentration 10 μM): > 10 µM
11 | C/C=C(\C)[C@H]1OC(=O)[C@@H](C)NC(=O)[C@H](C(C)CC)NC(=O)CN(C)C(=O)[C@@H](Cc2ccccc2)N(C)C(=O)[C@H](C)NC(=O)[C@@H](CC(C)C)OC(=O)/C(C)=C/C[C@H](O)[C@H]1C (some centres unmarked) [Compound 20] | 0.2 to 10 | IC50 ([1]; 72 h, Cell Titer-Glo): 0.389 µM
12 | C/C=C(\C)[C@H]1OC(=O)[C@@H](C)NC(=O)[C@H](C(C)CC)NC(=O)CN(C)C(=O)[C@@H](Cc2ccc(Cl)cc2)N(C)C(=O)[C@H](C)NC(=O)[C@@H](CC(C)C)OC(=O)/C(C)=C/C[C@H](O)[C@@H]1C (some centres unmarked) [Compound 21] | < 0.02 | IC50 (HCC1954 cells): < 0.02 µM
13 | CCC(C)[C@@H]1NC(=O)CN(C)C(=O)[C@@H](Cc2ccccc2)N(C)C(=O)[C@H](C)NC(=O)[C@@H](CC(C)C)OC(=O)/C(C)=C/CCCOC(=O)[C@H](CCCCN)NC1=O (some centres unmarked) [Compound 60] ([dHica]A[dNMeF][Sar][Ile(3ξ)]K; linker N-C via X9) | > 10 | –
14 | C/C=C(\C)[C@H]1OC(=O)[C@@H](C)NC(=O)[C@H]([C@H](C)CC)NC(=O)CN(C)C(=O)[C@@H](Cc2ccc(Cl)cc2)N(C)C(=O)[C@H](C)NC(=O)[C@@H](CC(C)C)OC(=O)/C(C)=C/C[C@H](OCSC)[C@@H]1C [Compound 61] | < 0.02 | –
